Data set [1] can be described thus: Uninfected (sham infected) mice treated for 5 days, check for toxic and non specific effects. The class given is in vivo, BALB/c mice. To be noted: 500 μM. On the procedure: In the second protocol, groups of 18 4-6-week-old BALB/c mice (Charles River Laboratories) were infected intranasally with 6-8×10^5 TCID50 hMPV strain C-85473 in 25 μl of OptiMEM™ supplemented with the PAR-1 agonist, PAR-1 antagonist or control peptide at a final concentration of 500 μM. As infected controls, groups of 18 4-6-week-old BALB/c mice (Charles River Laboratories) were infected intranasally with 6-8×10^5 TCID50 hMPV strain C-85473 in 25 μl of OptiMEM™ supplemented with H2O or DMSO. As uninfected control, groups 18 mice were sham infected with the concentrated supernatant of non-infected LLC-MK2 cells supplemented with the PAR-1 agonist, PAR-1 antagonist or control peptide at a final concentration of 500 μM or DMSO. On day 1 through 4 post infection, animals were treated with the PAR-1 agonist, PAR-1 antagonist or control peptide at a final concentration of 50 μM or 500 μM, or H2O or DMSO for control groups, resulting in a 5-day treatment in total. Animals were housed in groups of five and three in micro-isolator cages. The animals were evaluated on a daily basis for mortality, weight loss, and the presence of symptoms. On day 5 post-infection, lungs were removed from six mice per group for the evaluation of viral titres by cell culture and cytokine expression by Iuminex™. […]
(§1) 250 μL of lung homogenates (see section “Pulmonary viral titers”) were added to 250 μl 50 mM KPO4, pH 6.0 buffer containing 0.2% CHAPS {3-[(3-cholamidopropyl)-dimethylammonio]1-1-propanesulfonate} (Sigma) and 0.2% of a protease inhibitor cocktail (Sigma) and stored at −20° C. until the day of analysis. Samples were centrifuged at 13,800×g for 10 min at 4° C., and 50 μl of the supernatant was used for cytokine quantification. Levels of interleukin-4, IL-6, IL-12(p40), IL-12(p70), IFN-γ, KC, MCP-1, MIP-1α, RANTES were determined by the use of a 9-plex mouse bead kits (BioRad™/Millipore™) according to the manufacturer's instructions. Experiments were performed in a 96-well filter plate and results were analysed with the Luminex™ system (Qiagen™).

Data set [2] relates to hMPV strain C-85473. The data set can be described thus: hMPV-infected BALB/c mice, three-day prophylactic treatment regimen (experiment 1). To be noted: 3-day treatment. The class given is in vivo. Here is the method:
(§2) hMPV viral titers were determined by 10-fold serial dilutions of virus in 24-well plates containing LLC-MK2 cells. Before infection, cells were washed twice with phosphate-buffered saline (PBS) to remove residual serum proteins that could inhibit trypsin activity. Infected plates were incubated at 37° C. with 5% CO2 and replenished with 1 μl of fresh trypsin (0.0002%) every other day. hRSV viral titers were determined by 10-fold serial dilutions of virus in 24-well plates containing Hep2 cells. Before infection, cells were washed twice with phosphate-buffered saline (PBS). Infected plates were incubated at 37° C. with 5% CO2. On day 4 post infection, plates were fixed with 80% acetone at −20° C. for 30 min, washed with PBS and air dried. The presence of hRSV was detected by an immuno-staining assay using a monoclonal goat Anti-Respiratory Syncytial Virus primary antibody and a donkey anti-Goat IgG Secondary Antibody, HRP conjugate (both from Cederlane). Virus titers were reported as 50% tissue culture infectious doses (TCID50) per ml, per mouse or per gram of lung. The lower limit of detection of the assay is 10^2 TCID50 per gram. TCID50 were calculated by the Reed and Muench method.
In the first protocol, groups of 12 4-6-week-old female BALB/c mice (Charles River Laboratories) were infected intranasally with 4-7×10^5 TCID50 hMPV strain C-85473 in 25 μl of OptiMEM™ supplemented with the PAR-1 or PAR-1 antagonist at a final concentration of 50 μM or 500 μM. As infected controls, groups of 12 4-6-week-old BALB/c mice (Charles River Laboratories) were infected intranasally with 4-7×10^5 TCID50 hMPV strain C-85473 in 25 μl of OptiMEM™ supplemented with H2O or DMSO. As an uninfected control, 12 mice were sham infected with the concentrated supernatant of non-infected LLC-MK2 cells supplemented with DMSO. On day 1 and 2 post infection, animals were treated with the PAR-1 agonist or PAR-1 antagonist at a final concentration of 50 μM or 500 μM, or H2O or DMSO for control groups, resulting in a 3-day treatment in total. All animals were housed in groups of four in micro-isolator cages. The animals were evaluated on a daily basis for mortality, weight loss, and the presence of symptoms. On day 5 post-infection, lungs were removed from six mice per group for the evaluation of viral titres by cell culture and cytokine expression by Luminex™.
(§3) On day 5 post infection, six animals per group were sacrificed, the lungs were removed and snap frozen in liquid nitrogen. Lungs were weighed, homogenized in 1 ml of PBS, centrifuged (2000 rpm, 10 min) and the supernatant was used to infect LLC-MK2 monolayers (in case of hMPV-infected mice) or Hep2 monolayer (in case of hRSV-infected mice) for virus titration as reported in the section “Viral titers”.
as §1
(§4) Differences in weight loss between groups was analysed by repeated measures two-way ANOVA. Viral titers, cytokine levels and mean histopathology scores were analysed using student t-test.

Data set [3] has as its system hMPV strain C-85473. Kind of data set: hMPV-infected BALB/c mice, five-day treatment started simultaneously or 24 h post infection (experiment 3). In kind it is in vivo. To be noted: 500 μM. Here is the method:
as §2
In a third protocol, Two groups of 12 4-6-week-old BALB/c mice (Charles River Laboratories) were infected intranasally with 6×105 TCID50 hMPV strain C-85473 in 25 μl of OptiMEM™, supplemented with the PAR-1 agonist or PAR-1 antagonist at a final concentration of 500 μM and treated on days 1 through 4 post infection with the PAR-1 agonist or PAR-1 antagonist (500 μM). Two more groups of 4-6-week-old BALB/c mice (Charles River Laboratories) were infected intranasally with 6×105 TCID50 hMPV strain C-85473 in 25 μl of OptiMEM™. These groups were treated from day 1 though 5 post infection (treatment delayed 24 h post-infection) with the PAR-1 agonist or PAR-1 antagonist (500 μM). As infected controls, groups of 12 4-6-week-old BALB/c mice (Charles River Laboratories) were infected intranasally with 4×105 TCID50 hMPV strain C-85473 in 25 μl of OptiMEM supplemented with DMSO. All animals were housed in groups of four in micro-isolator cages. The animals were evaluated on a daily basis for mortality, weight loss, and the presence of symptoms. On day 5 post-infection, lungs were removed from six mice per group for the evaluation of viral titres by cell culture
as §3, §4

As for `CC(C)c1ccc(Cn2ccc3c4c(N)nc(NC5CC5)nc4ccc32)cc1` [PAR-1 antagonist, N3-cyclopropyl-7-{[4(I-methylethyl)phenyl]methyl)-7H-pyrrolo[3,2-f]quinazoline-I,3-diamine], the “weight loss or symptoms in uninfected mice” value in data set [1] is “In none of the uninfected groups significant weight loss or symptoms were observed”. Also, the pulmonary viral titers result was “significant (though not dose-dependent) reduction” in data set [2] (day 5 post hMPV infection, 50 or 500 μM, vs diluted DMSO or H2O treated mice) and “reduction in pulmonary viral titers” in data set [3] (day 5 post infection, treatment simultaneous or started 24 h post infection, vs infected/untreated). Also, the “cytokine expression in the lungs” value in data set [2] (day 5 post infection, 50 or 500 μM, Luminex) was “no significant difference in cytokine expression”. Besides, the weight loss entry in data set [2] (hMPV-infected mice, 50 or 500 μM intranasal, vs infected untreated mice (H2O or DMSO), followed 14 days) was “dose dependent reduction in weight loss”; in data set [3] (5-day prophylactic treatment started simultaneously with infection, vs infected/untreated group (FIG. 12)), “significant reduced weight loss”; in data set [3] (5-day treatment started 24 h post infection, vs infected/untreated mice (FIG. 13)), “lost less weight than infected/untreated mice and weight loss started at a later time point”; in data set [3] (5-day treatment started 24 h post infection, vs infected/untreated mice (FIG. 13), listed as PAR1 antagonists), “started losing weight later and lost less weight than untreated infected mice, although the difference was not found to be statistically significant”.

(Values after US20140378502A1, “Par1 Inhibitors for Use in the Treatment or Prevention of Paramyxoviridae Infections” (Université Laval, priority 2011, published 2014).)
